# Assay: Human HepG2 cell viability assay in 384 well format
# Assay type: toxicity, cell-based
# Set-up: dose 125 nL, time 70.5 hour; cytotoxicity at 70.5 h: concentration not given beside the values
# Settings: HepG2 cells, read-out: Inhibition
row,SMILES,cytotoxicity at 70.5 h
1,Cc1cc(C)c(CNC(=O)NCC(O)c2cccc(F)c2)c(=O)[nH]1 (configuration not stated),-3.53%
2,O=C(Cn1c(=O)n(Cc2ccco2)c2ncccc21)Nc1ccccn1,-4.41%
3,Cc1noc(C)c1CN(C)C(=O)CCn1c(=O)n(C)c2ccccc21,-12.2%
4,O=C(N[C@@H]1CN(c2ncccn2)C[C@@H]2CCCO[C@@H]21)c1cnccn1,2.24%
5,CC(C)Nc1cc(N2CCCC3(CN(C)C(=O)O3)C2)ncn1 (configuration not stated),15%
6,O=C(C1CCC2(CCN(c3ncccn3)CC2)CO1)N1CCCC1 (configuration not stated),-5.27%
7,COCCO[C@H]1CCN(C(=O)c2cnccn2)[C@H]1Cc1ccncc1,-1.32%
8,Cc1c[nH]c(CN(C)C(=O)C2CC(=O)N(Cc3ccncc3)C2)n1 (configuration not stated),11.9%
9,CC(C)n1c(C2CCCN(Cc3ccnn3C)C2)nc2ccccc21 (configuration not stated),-9.99%
10,O=C(C1CCOCC1)N1CCO[C@H]2[C@H](Oc3ccccn3)CC[C@@H]21,13.9%
11,Cc1nnc(NCc2ccc(Cl)cc2)o1,-6.23%
12,CN(CC(=O)N1CCCC1)C(=O)Cc1csc(-c2ncccn2)n1,-1.25%
13,Cc1ccc(S(=O)(=O)Nc2ccc(-n3nnn(C)c3=O)cc2)cc1,1.6%
14,C[C@@H]1CN(c2ccc(Cl)cn2)CC[C@@]1(O)C1CCOCC1,-1.93%
15,CCc1cnc(C)nc1N1CCC(Cc2cccc(C(=O)O)c2)C1 (configuration not stated),-7.7%
16,Fc1ccc(C2CN(c3ncnc4nc[nH]c34)CCO2)cc1 (configuration not stated),-11.9%
17,CCC(=O)N(C)C1CCN(Cc2ncc(C)c(OC)c2C)CC1,-17.3%
18,CC(C)c1nnc2n1CCN(C(=O)c1cnc(C3CC3)s1)C2,-7.9%
19,CN(Cc1cnccn1)C(=O)c1ccnc(OC2CCC2)c1,-9.6%
20,COc1ccc(C[C@H]2CN(C(=O)c3ccc(C)nc3)CC[C@@H]2OC)cc1,-2.92%
21,Cc1n[nH]c(C)c1CNC(=O)NC1CCCCC1,-8.57%
22,Cc1nc(C(=O)N2CCCC2c2cnn(C)c2)ccc1C#N (configuration not stated),20.3%
23,CC(C)Cn1cc(NCc2cscn2)cn1,9.5%

row,SMILES,cytotoxicity at 70.5 h
1,CCNC(=O)c1nnc2ccc(N3CCOCC3)cc2n1,12.6%
2,O=C(NCCOCC(F)(F)F)c1ccc(-c2ccco2)[nH]c1=O,-9.67%
3,Cc1cnn(CC2CCCN2C(=O)c2nccnc2N)c1 (configuration not stated),-6.62%
4,Fc1ccc(F)c(CN2CCC(c3cc4ncccc4cn3)CC2)c1,4.59%
5,CC1(C)OCC2(CO1)CN(C(=O)c1ccccc1Cl)C2,-1.63%
6,CCc1nnc2n1CCN(c1nc3ccccc3o1)C2,-7.72%
7,COCC(=O)NC[C@H]1C[C@@H]2CCN1C[C@@H]2c1cc(-c2cccs2)nn1C,-7.87%
8,CCn1nccc1CN(C)C(=O)Cn1cc2c(n1)c(C)nn2CC,-1.76%
9,Cc1noc(C2CCN(C(=O)CCCNc3ncccn3)CC2)n1,1.13%
10,CO[C@H]1CCN(c2ncccn2)[C@H]1Cc1ccccc1,-6.47%
11,O=C(NCc1cc2n(n1)CCCNC2)c1cn2cc(Cl)ccc2n1,-2.1%
12,CC(C)S(=O)(=O)NCc1cccnc1Oc1ccc(F)cc1F,1.03%
13,CC1CN(Cc2cccnc2)CCN1c1ccc2nncn2n1 (configuration not stated),-8.86%
14,O=S1(=O)CCN(Cc2cccnc2)[C@H]2CCN(c3ncccn3)CC[C@H]21,19.6%
15,Cc1ccoc1-c1nnc(CN2CCCC(Cn3cncn3)C2)o1 (configuration not stated),-6.83%
16,CCCc1cnc(C)nc1N1CCC(Cc2ccc(CO)cc2)C1 (configuration not stated),-10.5%
17,Cc1cc(C)cc(C(=O)NCc2ncnn2C)c1,-5.75%
18,CO[C@H]1CN(Cc2cc(F)ccc2F)CC[C@@]12CCCO2,-2.25%
19,CN(C)C(C(=O)N1CCC(CCO)CC1)c1ccccc1F (configuration not stated),8.83%
20,CN1CCC(N(C)C[C@H]2CC[C@@H](Cc3cccc(CO)c3)O2)CC1,5.66%
21,O=S(=O)(c1ccccc1)N1C(CN2CCOCC2)[C@]2(O)CC[C@H]1CC2 (some centres not stated),16.5%
22,COc1ccc(F)c(CN2CCCC(O)(CNCC(C)(C)C)C2=O)c1 (configuration not stated),13.1%
23,Cc1ccc(C(CNCc2c[nH]nc2C)N(C)C)cc1 (configuration not stated),11.2%

row,SMILES,cytotoxicity at 70.5 h
1,CC(=O)Nc1nc(CN2CCOC(Cn3cc(C)cn3)C2)cs1 (configuration not stated),-7.56%
2,COCCN(C)C(=O)c1ccc(OC)cc1O,-2.43%
3,CNC(=O)NCC1CCC2(CCN(c3ncccn3)CC2)CO1 (configuration not stated),-3.53%
4,CC(C)(C)c1ccc(-c2n[nH]c3c2CN(CC2CCOC2)CC3)cc1 (configuration not stated),-12%
5,CC(C)CC(CCO)CNC(=O)N1CCCC1(C)C (configuration not stated),2.81%
6,COc1cc(F)ccc1N(C)Cc1ccccn1,-1.59%
7,CC(C)CN1C(=O)C2(CCCC2)NC1c1c[nH]nc1-c1cccnc1 (configuration not stated),-3.57%
8,Cc1nc(C2CCCN2C(=O)CCOCc2ccccc2)no1 (configuration not stated),-8.94%
9,CC1=C[C@@H](CN2CCC(O)CC2)[C@H](C(C)C)C[C@H]1Cc1nnc(C)o1,-4.6%
10,CN(Cc1ccnc2ccccc12)C1CCS(=O)(=O)C1 (configuration not stated),-6.17%
11,Cc1ccc2nc(C3CCN(CCO)CC3)nn2c1,21.1%
12,CC(C)(C)c1cn(C[C@H]2CC3CCN2C[C@@H]3C(=O)NC2CC2)nn1 (some centres not stated),10.5%
13,CC(NC(=O)CCn1cccn1)c1ccc2c(c1)OCCO2 (configuration not stated),14.2%
14,Cc1noc(CCCNC(=O)CNC(=O)c2cc3ccccc3[nH]2)n1,-5.29%
15,Cc1cccc(CN2CCC3(CC2)CN(c2cnn(C)c2)C(=O)CO3)n1,41.4%
16,Cc1ccc(CN2CC[C@]3(C[C@H](OCc4ccccn4)CO3)C2)o1,-18.4%
17,N#Cc1nc(COc2ccc3c(c2)OCO3)oc1N1CCCCCC1,-21.8%
18,O=C(NCCn1cc(Cl)cn1)C1CCN(C(=O)C2CC2)CC1,2.7%
19,Cc1nnc([C@H]2C[C@H]3OCC[C@H]3N(S(=O)(=O)C3CC3)C2)o1,5.23%
20,COc1ccccc1Oc1ncccc1CNC(=O)[C@H](C)O,-6.71%
21,Cn1nc(C2CCCN(Cc3ccc(F)cc3)C2)c2nccnc21 (configuration not stated),5.25%
22,O=S(=O)(C1CC1)N1CCn2c(Cn3cccn3)cnc2C1,-1.3%
23,Cc1ccc(C(=O)NCCCS(C)(=O)=O)c(=O)[nH]1,15.4%

row,SMILES,cytotoxicity at 70.5 h
1,N#Cc1cc(S(N)(=O)=O)ccc1NC1CCc2cc(Cl)ccc21 (configuration not stated),-11.2%
2,Cc1nccc([C@@H]2C[C@@H]3CCN(S(C)(=O)=O)C[C@H]3O2)n1,-10%
3,CC(C)c1nc(C2CCCN(C(=O)c3ccc(N(C)C)nn3)C2)no1 (configuration not stated),-1.24%
4,CN(C)c1ncccc1CNCc1ccc(N2CCOCC2)cc1,18.9%
5,CCOCC1CN(C(=O)c2ccoc2C)Cc2cnn(C)c21 (configuration not stated),28.1%
6,Cc1nc(C(C)NCc2cc(O)c3cccc(F)c3n2)cs1 (configuration not stated),-6.76%
7,O=C(NCCN1CCc2ccccc21)c1cc(-c2ccc(O)cc2)n[nH]1,46.5%
8,COc1ccc2c(c1)C(=O)NC1(CC2)CCN(Cc2ccccc2)C1 (configuration not stated),-3.55%
9,O=C(CCn1cncn1)N1CCCC(CO)(CCCc2ccccc2)C1 (configuration not stated),15.8%
10,CN1CCC(NC(=O)Nc2ccc(F)c(Br)c2)C1=O (configuration not stated),21%
11,COc1c(CNCCC(=O)NC2CCCCC2)c(C(C)C)nn1C,-0.685%
12,CC(=O)N1CC[C@H]2CC(=O)N(Cc3ccc4c(c3)OCO4)CC[C@H]2C1,-3.96%
13,Cc1ccc(CC(=O)N2CCCC(c3n[nH]c4nccnc34)C2)cc1 (configuration not stated),-1.21%
14,CCN(CC)c1ccc(C(=O)N(C)Cc2c(C)noc2C)cn1,-3.66%
15,Cn1nccc1C(=O)N1CCC(c2nnsc2S(C)(=O)=O)CC1,-5.74%
16,CC(C)c1nnc2n1CCN(C(=O)c1cccc(C(F)(F)F)c1)C2,6.51%
17,Cc1nn(C)c(C)c1OCC(=O)NCC(O)Cc1ccccc1 (configuration not stated),1.56%
18,O=C(NCC1CC1)[C@@H]1CC[C@@H]2[C@@H](CCN2Cc2ccco2)O1,1.26%
19,Cc1nn(C)c2cnn(Cc3ccc(C(=O)NCC4CC4)o3)c12,-10.2%
20,Cc1nc2ccc(C(=O)N3C[C@@H](O)[C@H](N4CCCC4)C3)cc2[nH]1,-1.69%
21,c1ccc(CN2CC[C@H]3[C@H]2CCN3c2ncccn2)nc1,-5.09%
22,COCC1CC2(CCN(Cc3ccoc3)CC2)CN1C(C)C (configuration not stated),-9.47%
23,O=C(O)C(c1ccc2c(c1)OCO2)N1CCCC1 (configuration not stated),-0.492%

row,SMILES,cytotoxicity at 70.5 h
1,Cc1cc(NC(=O)N2CCC[C@@H]2CO)nn1-c1cccc(Cl)c1,-8.23%
2,Cc1ccc(C)c(-n2cc(CN3CCOCC3)c(-c3ccccc3)n2)c1,-3.83%
3,CC(C)S(=O)(=O)CC(=O)N(Cc1ccsc1)c1ccccc1,-7.19%
4,O=C([C@H]1CCCO1)N1Cc2nccn2CC(COc2cccnc2)C1 (some centres not stated),-4.93%
5,CN1CCC(CNC(=O)NCc2ccc(F)cc2)CC1,-1.23%
6,Cc1cc(N2CCCC2)c(C#N)c(C)n1,17.6%
7,CC(C)(C)n1ncc(NCCc2ccccc2C(F)(F)F)c(Cl)c1=O,33%
8,Cc1cnn(CCNCc2csc(-c3ccc(C(N)=O)cc3)n2)c1,-1.79%
9,CNC(=O)C1(CCCc2ccncc2)CCCCN1 (configuration not stated),15.5%
10,Cc1cc(C)cc(N2CCN(Cc3cccc(CCN)c3)CC2=O)c1,-2.46%
11,NC(=O)CCC(=O)N1CCc2[nH]nc(-c3ccc4c(c3)OCO4)c2C1,-5.52%
12,CC(C)n1nc(CN2CCCC2=O)c2c1CN(C(=O)c1ccco1)C2,-5.68%
13,CCN(CC)S(=O)(=O)N1C[C@@H](O)[C@H](Oc2cccc(F)c2)C1,-6.35%
14,Cn1cnc2c1C(C(=O)N1CCCC1)N(CC1CC1)CC2 (configuration not stated),-9.9%
15,Cc1ccsc1CN1CCn2c(COc3cccnc3)cnc2C1C (configuration not stated),-9.93%
16,O=C(NCCCNC(=O)c1ccc(F)cc1F)c1cccc(O)c1,-1.34%
17,c1cnc(N2CCOCC3(CN(Cc4cc[nH]n4)CCO3)C2)nc1 (configuration not stated),7.31%
18,CCN1CCN(C(=O)c2ccc(OC)nn2)c2ccccc21,-0.876%
19,CC(C)C(c1cccnc1)N(C)C(=O)Cc1c(F)cccc1F (configuration not stated),-6.11%
20,CCc1noc(CNc2cc(F)ccc2OCC2CCCO2)n1 (configuration not stated),-6.07%
